Data on 14 compounds can be found in ChEMBL document CHEMBL4376889, “Discovery of a Brain-Penetrant ATP-Competitive Inhibitor of the Mechanistic Target of Rapamycin (mTOR) for CNS Disorders” (J Med Chem, 2020).

One data set addresses Cytochrome P450 3A4 (Homo sapiens, UniProt P08684). The data set can be described thus: Inhibition of CYP3A4 (unknown origin). In kind it is ADME.
Data set [1] deals with T1, Serine/threonine-protein kinase mTOR (Mus musculus, UniProt Q9JLN9). The data set is described as follows: Inhibition of mTOR in mouse MEF cells harboring TSC1 deletion mutant assessed as reduction in PS6 phosphorylation incuabted for 2 hrs alexa fluor 594 and Hoechst staining based fluorescence assay. The format is cell-based.
A short description of data set [2]: Solubility of compound at pH 6.8. Particulars: buffer. The format is physicochemical.
Data set [3] is described as follows: Stability in rat liver microsomes assessed as intrinsic clearance at 1 uM incubated for 30 mins by LC-MS/MS analysis. The format is ADME, Microsome. To be noted: read-out: CLH. (Liver microsomes are vesicles of endoplasmic reticulum, rich in cytochrome P450 enzymes.)
For another data set, the system named is MDR1. The data set can be described thus: Efflux ratio of permeability from basolateral to apical over apical to basolateral side in MDCK-MDR1 cells. To be noted: dog. The format is ADME, cell-based, Canis lupus familiaris.
The next data set addresses Cytochrome P450 2D6 (Homo sapiens, UniProt P10635). The data set is described as follows: Inhibition of CYP2D6 (unknown origin). The format is ADME.
For data set [4], the target named is Phosphatidylinositol 4,5-bisphosphate 3-kinase catalytic subunit beta isoform (Homo sapiens, UniProt P42338). The data set can be described thus: Inhibition of PI3Kbeta (unknown origin).
For data set [5], the target named is Phosphatidylinositol 4,5-bisphosphate 3-kinase catalytic subunit alpha isoform (Homo sapiens, UniProt P42336). The data set can be described thus: Inhibition of PI3Kalpha (unknown origin).
A further data set has as its target Cytochrome P450 2C9 (Homo sapiens, UniProt P11712). The data set is described as follows: Inhibition of CYP2C9 (unknown origin). In kind it is ADME.
Data set [6] in a line: Stability in monkey liver microsomes assessed as intrinsic clearance. In kind it is ADME, Macaca mulatta, Microsome. To be noted: rhesus monkey, read-out: CLH.
Data set [7] deals with T1, Serine/threonine-protein kinase mTOR. The data set is described as follows: Inhibition of mTOR in mouse TSC1-/- MEF cells assessed as inhibition of S6 Ser240/244 phosphorylation incubated for 2 hrs by fluorescence based assay. In kind it is cell-based.
Data set [8] is described as follows: Stability in rat liver microsomes assessed as intrinsic clearance. In kind it is ADME, Microsome. Particulars: read-out: CLH.
For data set [9], the target named is Phosphatidylinositol 4,5-bisphosphate 3-kinase catalytic subunit gamma isoform (Homo sapiens, UniProt P48736). The data set is described as follows: Inhibition of PI3Kgamma (unknown origin).
Data set [10] is described as follows: Stability in human liver microsomes assessed as intrinsic clearance. The format is ADME, Microsome. Particulars: read-out: CLH.
In data set [11] the target is Phosphatidylinositol 4,5-bisphosphate 3-kinase catalytic subunit delta isoform (Homo sapiens, UniProt O00329). The data set is described as follows: Inhibition of PI3Kdelta (unknown origin).
A short description of data set [12]: Stability in mouse liver microsomes assessed as intrinsic clearance. In kind it is ADME, Microsome. Particulars: read-out: CLH.
Data set [13] is described as follows: Stability in dog liver microsomes assessed as intrinsic clearance. In kind it is ADME, Canis lupus familiaris, Microsome. Particulars: read-out: CLH.
For data set [14], the system named is Cortical neurone. The data set is described as follows: Inhibition of overgrowth of mouse primary cortical neuron harboring TSC1 deletion mutant at 20 nM incubated for 7 days by immunofluorescence assay. The format is functional, cell-based.
The test system of another data set is Mus musculus. The data set can be described thus: Protection against C57BL/6J mouse model of neuronal mTOR hyperactivity assessed as survival rate at 6 mg/kg, ip administered on postnatal day 22 daily and measured on postnatal day 52 (reference value: 48 %). In kind it is functional.
The test system of data set [15] is Cortical neurone. The data set is described as follows: Inhibition of oversizing of mouse primary cortical neuron harboring TSC1 deletion mutant at 20 nM incubated for 7 days by immunofluorescence assay. To be noted: 168 h. In kind it is functional, cell-based.

Values after ≈ are worked out from the molar mass of the structure shown. Active and inactive are the calls of the source. No cut-off for these calls is given here.

Cytochrome P450 3A4, sequence (P08684 whole entry): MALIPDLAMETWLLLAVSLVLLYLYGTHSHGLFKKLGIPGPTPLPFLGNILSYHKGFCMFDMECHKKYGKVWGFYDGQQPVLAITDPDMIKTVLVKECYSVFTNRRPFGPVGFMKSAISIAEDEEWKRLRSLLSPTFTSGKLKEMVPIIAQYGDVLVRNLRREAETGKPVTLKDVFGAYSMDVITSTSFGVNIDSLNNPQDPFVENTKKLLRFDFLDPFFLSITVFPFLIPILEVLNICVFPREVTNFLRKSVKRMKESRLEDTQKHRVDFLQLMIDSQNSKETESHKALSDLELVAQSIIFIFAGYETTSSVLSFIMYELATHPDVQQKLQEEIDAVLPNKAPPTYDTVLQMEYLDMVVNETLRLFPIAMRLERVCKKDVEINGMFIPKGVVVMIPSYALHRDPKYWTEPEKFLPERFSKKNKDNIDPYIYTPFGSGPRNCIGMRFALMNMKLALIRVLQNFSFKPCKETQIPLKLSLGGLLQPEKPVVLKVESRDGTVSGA
Phosphatidylinositol 4,5-bisphosphate 3-kinase catalytic subunit beta isoform, sequence (P42338 whole entry, canonical isoform): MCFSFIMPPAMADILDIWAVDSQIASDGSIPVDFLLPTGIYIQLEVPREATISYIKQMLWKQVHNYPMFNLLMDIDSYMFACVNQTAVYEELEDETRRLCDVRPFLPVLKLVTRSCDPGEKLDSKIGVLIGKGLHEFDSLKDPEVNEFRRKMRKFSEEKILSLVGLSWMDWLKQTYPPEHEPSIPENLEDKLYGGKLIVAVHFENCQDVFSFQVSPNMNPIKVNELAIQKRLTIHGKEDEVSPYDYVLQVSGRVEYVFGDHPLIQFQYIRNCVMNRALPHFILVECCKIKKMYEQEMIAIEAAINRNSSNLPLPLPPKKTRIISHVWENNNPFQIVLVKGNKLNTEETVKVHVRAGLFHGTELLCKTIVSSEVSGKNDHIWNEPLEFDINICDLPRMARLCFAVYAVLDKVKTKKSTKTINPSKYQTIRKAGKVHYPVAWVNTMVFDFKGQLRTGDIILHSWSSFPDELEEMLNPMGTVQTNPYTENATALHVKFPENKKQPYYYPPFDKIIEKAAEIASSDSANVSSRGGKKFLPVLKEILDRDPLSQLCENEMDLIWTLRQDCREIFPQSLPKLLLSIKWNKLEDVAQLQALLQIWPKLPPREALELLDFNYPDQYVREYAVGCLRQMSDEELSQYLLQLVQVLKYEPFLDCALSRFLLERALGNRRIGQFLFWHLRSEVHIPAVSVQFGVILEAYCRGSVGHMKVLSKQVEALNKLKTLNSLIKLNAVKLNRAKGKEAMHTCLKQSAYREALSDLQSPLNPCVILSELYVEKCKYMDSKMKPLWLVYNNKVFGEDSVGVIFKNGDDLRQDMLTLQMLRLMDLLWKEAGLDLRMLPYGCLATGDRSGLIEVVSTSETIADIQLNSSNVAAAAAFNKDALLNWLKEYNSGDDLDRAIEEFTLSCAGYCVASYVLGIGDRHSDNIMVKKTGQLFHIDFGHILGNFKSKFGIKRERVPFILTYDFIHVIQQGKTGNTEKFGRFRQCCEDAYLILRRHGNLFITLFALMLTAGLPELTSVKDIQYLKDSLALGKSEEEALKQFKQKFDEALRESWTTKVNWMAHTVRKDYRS
Cytochrome P450 2C9, sequence (P11712 whole entry): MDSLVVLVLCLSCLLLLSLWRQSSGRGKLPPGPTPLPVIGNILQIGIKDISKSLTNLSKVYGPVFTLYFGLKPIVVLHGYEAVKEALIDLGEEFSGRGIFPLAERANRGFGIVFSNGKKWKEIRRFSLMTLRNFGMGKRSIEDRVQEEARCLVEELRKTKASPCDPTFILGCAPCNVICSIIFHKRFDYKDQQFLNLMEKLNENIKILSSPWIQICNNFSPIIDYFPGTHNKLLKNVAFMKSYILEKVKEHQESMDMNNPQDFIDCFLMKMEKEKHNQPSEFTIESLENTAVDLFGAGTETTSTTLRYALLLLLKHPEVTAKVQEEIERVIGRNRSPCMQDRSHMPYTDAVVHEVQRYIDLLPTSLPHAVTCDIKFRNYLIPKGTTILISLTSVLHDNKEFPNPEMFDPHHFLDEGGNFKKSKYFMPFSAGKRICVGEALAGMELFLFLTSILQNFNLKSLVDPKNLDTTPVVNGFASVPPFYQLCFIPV
Cytochrome P450 2D6, sequence (P10635 whole entry, canonical isoform): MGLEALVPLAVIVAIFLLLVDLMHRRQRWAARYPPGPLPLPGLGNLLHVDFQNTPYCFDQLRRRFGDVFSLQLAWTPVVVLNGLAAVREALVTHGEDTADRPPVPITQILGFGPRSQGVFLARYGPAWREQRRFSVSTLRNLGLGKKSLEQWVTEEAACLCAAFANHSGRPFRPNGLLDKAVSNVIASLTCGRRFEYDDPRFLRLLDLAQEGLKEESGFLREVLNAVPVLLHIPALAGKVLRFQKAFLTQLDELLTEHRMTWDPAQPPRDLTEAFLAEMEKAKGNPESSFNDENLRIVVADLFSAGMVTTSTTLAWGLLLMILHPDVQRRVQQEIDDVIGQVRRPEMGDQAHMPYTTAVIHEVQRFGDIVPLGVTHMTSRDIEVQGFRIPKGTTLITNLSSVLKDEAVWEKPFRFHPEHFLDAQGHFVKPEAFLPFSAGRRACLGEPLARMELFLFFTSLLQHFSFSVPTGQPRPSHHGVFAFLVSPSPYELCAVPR
Phosphatidylinositol 4,5-bisphosphate 3-kinase catalytic subunit delta isoform, sequence (O00329 whole entry, canonical isoform): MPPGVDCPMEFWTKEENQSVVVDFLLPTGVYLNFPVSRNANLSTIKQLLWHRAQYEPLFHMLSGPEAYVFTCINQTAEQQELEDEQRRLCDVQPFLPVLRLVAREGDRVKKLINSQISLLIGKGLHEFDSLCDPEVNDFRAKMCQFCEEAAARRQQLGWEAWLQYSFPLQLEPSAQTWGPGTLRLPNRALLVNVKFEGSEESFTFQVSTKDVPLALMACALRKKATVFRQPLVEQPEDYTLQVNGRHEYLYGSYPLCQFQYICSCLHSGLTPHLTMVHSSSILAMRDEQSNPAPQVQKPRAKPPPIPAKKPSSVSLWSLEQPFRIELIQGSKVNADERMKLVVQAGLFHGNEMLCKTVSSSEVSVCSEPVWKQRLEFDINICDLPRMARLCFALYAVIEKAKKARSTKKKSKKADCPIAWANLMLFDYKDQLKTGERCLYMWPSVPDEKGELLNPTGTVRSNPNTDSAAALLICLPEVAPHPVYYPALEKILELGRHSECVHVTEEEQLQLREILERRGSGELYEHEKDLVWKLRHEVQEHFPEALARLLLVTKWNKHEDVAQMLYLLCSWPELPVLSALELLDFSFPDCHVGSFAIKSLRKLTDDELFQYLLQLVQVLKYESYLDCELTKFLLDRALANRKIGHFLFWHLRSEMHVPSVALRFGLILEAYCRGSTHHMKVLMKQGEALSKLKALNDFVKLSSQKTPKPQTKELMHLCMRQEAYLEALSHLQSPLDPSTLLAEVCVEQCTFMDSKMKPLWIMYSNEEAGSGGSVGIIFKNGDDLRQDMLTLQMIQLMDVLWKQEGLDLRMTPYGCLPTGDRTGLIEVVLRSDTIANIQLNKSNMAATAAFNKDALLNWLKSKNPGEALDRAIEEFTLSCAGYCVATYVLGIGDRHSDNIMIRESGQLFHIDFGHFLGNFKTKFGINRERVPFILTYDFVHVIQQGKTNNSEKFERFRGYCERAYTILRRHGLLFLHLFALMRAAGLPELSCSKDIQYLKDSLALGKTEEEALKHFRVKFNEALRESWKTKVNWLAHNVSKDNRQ
Phosphatidylinositol 4,5-bisphosphate 3-kinase catalytic subunit alpha isoform, sequence (P42336 whole entry, canonical isoform): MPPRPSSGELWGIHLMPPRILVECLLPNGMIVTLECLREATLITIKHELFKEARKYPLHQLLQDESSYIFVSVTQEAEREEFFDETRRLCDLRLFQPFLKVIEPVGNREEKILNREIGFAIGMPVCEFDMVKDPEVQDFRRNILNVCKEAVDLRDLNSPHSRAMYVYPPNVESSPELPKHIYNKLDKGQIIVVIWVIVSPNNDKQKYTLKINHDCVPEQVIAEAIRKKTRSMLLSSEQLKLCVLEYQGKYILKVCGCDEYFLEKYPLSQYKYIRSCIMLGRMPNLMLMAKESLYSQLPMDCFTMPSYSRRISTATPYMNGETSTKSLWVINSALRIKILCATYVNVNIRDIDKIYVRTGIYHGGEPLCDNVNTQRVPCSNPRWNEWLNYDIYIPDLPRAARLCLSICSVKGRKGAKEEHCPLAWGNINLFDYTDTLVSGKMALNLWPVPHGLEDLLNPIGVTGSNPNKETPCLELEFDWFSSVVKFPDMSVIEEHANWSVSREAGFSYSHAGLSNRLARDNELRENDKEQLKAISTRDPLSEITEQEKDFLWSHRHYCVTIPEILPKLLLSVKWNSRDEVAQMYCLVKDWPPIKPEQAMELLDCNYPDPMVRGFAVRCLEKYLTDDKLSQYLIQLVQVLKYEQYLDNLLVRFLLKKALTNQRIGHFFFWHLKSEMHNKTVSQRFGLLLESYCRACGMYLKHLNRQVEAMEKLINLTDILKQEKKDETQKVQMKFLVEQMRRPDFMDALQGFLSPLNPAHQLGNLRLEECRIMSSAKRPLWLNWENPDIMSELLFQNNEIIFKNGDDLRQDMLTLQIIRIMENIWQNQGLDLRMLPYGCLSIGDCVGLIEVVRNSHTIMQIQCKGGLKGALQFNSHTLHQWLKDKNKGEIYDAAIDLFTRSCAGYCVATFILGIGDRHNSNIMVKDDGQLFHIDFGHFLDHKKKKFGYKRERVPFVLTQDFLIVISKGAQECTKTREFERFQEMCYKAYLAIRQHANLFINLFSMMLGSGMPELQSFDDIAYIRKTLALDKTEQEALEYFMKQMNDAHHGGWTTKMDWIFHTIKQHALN

In general, IC50 refers to the concentration at which inhibition is half-maximal. On Cytochrome P450 3A4, `C[C@@H]1COCCN1c1nc(N2CCOC[C@@H]2C)nc2sc(-c3cn[nH]c3)nc12` displayed a K of 0.02 min⁻¹. In addition, in [1], the IC50 was found to be 56 nM.
A word on the solubility: it is how much of the substance goes into solution per volume. `C[C@@H]1COCCN1c1nc(N2CCN(C)CC2)nc2sc(-c3cc[nH]n3)nc12`: on Cytochrome P450 3A4, the K is 0.001 min⁻¹. In [2], this compound returned a solubility of 191 µg/mL (≈ 477 µM). Moreover, in [3], the microsomal CLint at 1 µM was above 924 µL/min/mg. For the same compound, the IC50 in data set [1] was 134 nM.
For orientation: efflux ratio means a quotient of directional permeabilities that is used to spot active efflux. For the compound `C[C@@H]1COCCN1c1nc(N2CCOC[C@@H]2C)nc2sc(-c3cn[nH]n3)nc12`, the efflux ratio with MDR1 was found to be 0.65. In addition, the K on Cytochrome P450 3A4 was 0.01 min⁻¹. The IC50 in [1] came to 6.9 nM.
As to `CC(C)c1nc(N2CCOC[C@H]2C)c2nc(-c3cc[nH]n3)sc2n1`, the K at Cytochrome P450 3A4 was 0.012 min⁻¹. For the same compound, the solubility in data set [2] was below 1 µg/mL. Besides, the microsomal CLint at 1 µM in [3] came to 104 µL/min/mg. Moreover, the IC50 in [1] came out at 3.7 nM.
For `C[C@@H]1COCCN1c1ncnc2sc(-c3cc[nH]n3)nc12`, the K on Cytochrome P450 3A4 came out at 0.006 min⁻¹. The microsomal CLint at 1 µM in data set [3] came to 100 µL/min/mg. The IC50 in data set [1] was 603 nM.
For `C[C@@H]1COCCN1c1nc(N2CCOC[C@@H]2C)nc2[nH]c(-c3cccc4[nH]ccc34)nc12`, the IC50 on Cytochrome P450 2D6 was 12800 nM; in [4], above 10000 nM; in data set [5] it was 6600 nM; on Cytochrome P450 2C9, 1980 nM; in data set [7], 38 nM; in data set [9], 6600 nM. Moreover, in data set [11], the midpoint of inhibition, the IC50, lay at 800 nM. For the same compound, the microsomal CLint in data set [6] is 121 µL/min/mg; in data set [8], 35 µL/min/mg; in [10], 27 µL/min/mg; in data set [12], 62 µL/min/mg; in data set [13], 60 µL/min/mg. Besides, the efflux ratio in the data set with MDR1 came to 0.95. In addition, the K at Cytochrome P450 3A4 amounted to 0.08 min⁻¹.
In the case of `C[C@@H]1COCCN1c1nc(C2CCOCC2)nc2sc(-c3cc[nH]n3)nc12`, on Cytochrome P450 3A4, the K turned out to be 0.003 min⁻¹. The compound further registered a solubility in [2] of 9 µg/mL (≈ 23.3 µM). Moreover, the microsomal CLint at 1 µM in [3] came to 37 µL/min/mg. Further, the IC50 in data set [1] came to 6.3 nM.
For the compound `C[C@@H]1COCCN1c1nc(N2CCOC[C@@H]2C)nc2sc(-c3c[nH]cn3)nc12`, the efflux ratio in the data set on MDR1 worked out at 0.89. Moreover, the K on Cytochrome P450 3A4 came out at 0.013 min⁻¹. Besides, the half-inhibitory concentration (IC50) in data set [1] is 7.8 nM.
In the case of `C[C@@H]1COCCN1c1nc(N2CCOCC2)nc2sc(-c3cc[nH]n3)nc12`, the K on Cytochrome P450 3A4 came out at 0.011 min⁻¹. For the same compound, in [2], the solubility worked out at 4 µg/mL (≈ 10.3 µM). In addition, in [3], the microsomal CLint at 1 µM stood at 24 µL/min/mg. In data set [1], the IC50 came out at 5.3 nM.
Turning to `C[C@@H]1COCCN1c1nc(N2CCOC[C@@H]2C)nc2sc(-c3cccc4[nH]ccc34)nc12`, at Cytochrome P450 3A4, the K was 0.027 min⁻¹. Further, in data set [1], the IC50 is 305 nM.
On the same counts, the results for `C[C@@H]1COCCN1c1nc(N2CCOC[C@@H]2C)nc2sc(-c3cccc(O)c3)nc12` are 0.035 min⁻¹ and 278 nM.
In turn, `C[C@@H]1COCCN1c1nc(N2CCCOCC2)nc2sc(-c3cc[nH]n3)nc12` displayed a K on Cytochrome P450 3A4 of 0.011 min⁻¹. In data set [2], the solubility was below 2 µg/mL. The microsomal CLint at 1 µM in data set [3] came to 164 µL/min/mg. In [1], the half-maximal inhibitory concentration (IC50) is 2.7 nM.
Turning to `CO[C@H]1C[C@@H]2CC[C@@H](C)[C@@](O)(O2)C(=O)C(=O)N2CCCC[C@H]2C(=O)O[C@H]([C@H](C)C[C@@H]2CC[C@@H](OCCO)[C@H](OC)C2)CC(=O)[C@H](C)/C=C(\C)[C@@H](O)[C@@H](OC)C(=O)[C@H](C)C[C@H](C)/C=C/C=C/C=C/1C` [EVEROLIMUS], the inhibition result in the data set on Cortical neurone [14] is “Active”. The Activity in the data set with Mus musculus is 100%. Moreover, 0.15 nM corresponded to half-maximal inhibition in the data set with Cortical neurone [15] (IC50).
`C[C@@H]1COCCN1c1nc(CN2CCOCC2)nc2sc(-c3cc[nH]n3)nc12` gave a K at Cytochrome P450 3A4 of 0.008 min⁻¹. Moreover, the solubility in data set [2] amounted to 325 µg/mL (≈ 809 µM). For the same compound, the microsomal CLint at 1 µM in data set [3] was above 924 µL/min/mg. In [1], the IC50 worked out at 92 nM.
